According to ChEMBL document CHEMBL4219201, “Secoiridoid analogues from the fruits of Ligustrum lucidum and their inhibitory activities against influenza A virus” (Bioorg Med Chem Lett, 2018):
pIC50: −log10 of the molar value. Activity calls are given as the source filed them. No cut-off for these calls is given here.

Key:
Influenza A virus [1] = assay: Antiviral activity against Influenza A virus (A/WSN/1933(H1N1)) infected in MDCK cells cocultured with human 293T-Gluc cells at 100 uM preincubated with compound for 2 hrs followed by virus infection measured after 24 hrs by luciferase reporter gene assay relative to control; assay type: functional
Influenza A virus [2] = assay: Antiviral activity against Influenza A virus (A/WSN/1933(H1N1)) infected in MDCK cells cocultured with human 293T-Gluc cells at 20 uM preincubated with compound for 2 hrs followed by virus infection measured after 24 hrs by luciferase reporter gene assay relative to control; assay type: functional
Influenza A virus [3] = assay: Antiviral activity against Influenza A virus (A/WSN/1933(H1N1)) infected in MDCK cells cocultured with human 293T-Gluc cells preincubated with compound for 2 hrs followed by virus infection measured after 24 hrs by luciferase reporter gene assay; assay type: functional, organism-based
[4] = Cytotoxicity against MDCK cells assessed as reduction in cell viability by CCK8 assay; assay type: cell-based, Canis lupus familiaris; conditions: dog

For `COC(=O)C[C@@H]1C(C(=O)OC)=CO[C@@H](C)[C@@H]1C(OC)OC`, the inhibition (Influenza A virus [1]) was “inactive” and the inhibition (Influenza A virus [2]) was “inactive”.

`C[C@H]1OC(=O)CC2C(C(=O)O)=CO[C@@H](O[C@@H]3O[C@H](COC(=O)/C=C/c4ccccc4)[C@@H](O)[C@H](O)[C@H]3O)C21` (stereo partly specified) gave an inhibition at 100 µM (Influenza A virus [1]) of 33.3% and an inhibition at 20 µM (Influenza A virus [2]) of 35.6%.

For `CCOC(=O)C[C@@H]1C(C(=O)OC)=CO[C@@H](C)[C@@H]1C=O`, the inhibition at 100 µM (Influenza A virus [1]) was 96.8%, the inhibition at 20 µM (Influenza A virus [2]) was 55.8% and the pIC50 (Influenza A virus [3]) was 4.73. The CC50 [4] was 90.8 µM.

Compound `COC(=O)C1=CO[C@@H](O[C@@H]2O[C@H](CO)[C@@H](O)[C@H](O)[C@H]2O)/C(=C/C(=O)O)[C@@H]1CC(=O)OCCc1ccc(O)cc1` has an inhibition at 100 µM (Influenza A virus [1]) of 81.7%, an inhibition at 20 µM (Influenza A virus [2]) of 60.4% and a pIC50 (Influenza A virus [3]) of 4.90. For the same compound, the CC50 [4] was over 100 µM.

Work on `C=C[C@H]1[C@H](O[C@@H]2O[C@H](COC(=O)/C=C/c3ccccc3)[C@@H](O)[C@H](O)[C@H]2O)OC=C(C(=O)O)[C@H]1CC(=O)O` yielded an inhibition at 100 µM (Influenza A virus [1]) of 73.9%, an inhibition at 20 µM (Influenza A virus [2]) of 60.8% and a pIC50 (Influenza A virus [3]) of 4.78. The CC50 [4] was 80.5 µM.

`C/C=C1/[C@H](O[C@@H]2O[C@H](CO[C@@H]3O[C@H](CO)[C@@H](O)[C@H](O)[C@H]3O)[C@@H](O)[C@H](O)[C@H]2O)OC=C(C(=O)OC)[C@H]1CC(=O)OCCc1ccc(O)cc1` gave an inhibition at 100 µM (Influenza A virus [1]) of 60.8% and an inhibition at 20 µM (Influenza A virus [2]) of 17.8%.

For `NC(=O)c1ncn([C@@H]2O[C@H](CO)[C@@H](O)[C@H]2O)n1` [RIBAVIRIN], the pIC50 (Influenza A virus [3]) was 4.65.

`COC(=O)C1=CO[C@@H](O[C@@H]2O[C@H](CO)[C@@H](O)[C@H](O)[C@H]2O)[C@@](O)(CC(=O)O)[C@@H]1CC(=O)O` gave an inhibition at 100 µM (Influenza A virus [1]) of 76.2% and an inhibition at 20 µM (Influenza A virus [2]) of 29.4%.

Work on `COC(=O)C1=CO[C@@H](O[C@@H]2O[C@H](CO)[C@@H](O)[C@H](O)[C@H]2O)/C(=C/C(=O)O)[C@@H]1CC(=O)OCCc1ccc(O)c(O)c1` yielded an inhibition at 100 µM (Influenza A virus [1]) of 83.2%, an inhibition at 20 µM (Influenza A virus [2]) of 63.1% and a pIC50 (Influenza A virus [3]) of 4.88. The CC50 [4] was over 100 µM.

With `C/C=C1/[C@H]2OC=C(C(=O)OC)[C@H]1CC(=O)OC[C@@H](c1ccc(O)c(O)c1)OC[C@H]1O[C@@H](O2)[C@H](O)[C@@H](O)[C@@H]1O` the inhibition (Influenza A virus [1]) was “inactive” and the inhibition (Influenza A virus [2]) was “inactive”.

With `C/C=C1/[C@H]2OC=C(C(=O)OC)[C@H]1CC(=O)OC[C@H](c1ccc(O)c(O)c1)OC[C@H]1O[C@@H](O2)[C@H](O)[C@@H](O)[C@@H]1O` the inhibition (Influenza A virus [1]) was “inactive” and the inhibition (Influenza A virus [2]) was “inactive”.

For `C=C[C@H]1[C@H](O[C@@H]2O[C@H](COC(=O)/C=C/c3ccccc3)[C@@H](O)[C@H](O)[C@H]2O)OC=C(C(=O)O)[C@H]1CC(=O)OC`, the inhibition (Influenza A virus [1]) was “inactive” and the inhibition (Influenza A virus [2]) was “inactive”.
